# Measured values from patent US20240092835A1, “NOVEL PEPTIDES CAPABLE OF ALTERING NK CELL ACTIVITY” (Massachusetts Institute of Technology, priority 2022, published 2024).
# Assays:
# [1] = test system: NKG2A+/NKG2C− NK cells; experiment: NK cell activation markers in NKG2A+/NKG2C- NK cells incubated with peptide and K562 expressing HLA-E (inhibition); type: cell-based, human; conditions: for percentage of CCL3+ NK cells / percentage of CD107a+ NK cells / percentage of IFNG+ NK cells / percentage of TNF+ NK cells: NKG2A+/NKG2C- NK cells, K562/HLA-E
# In short: (§1)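 K562 + HLA-E, pulsed with human/CMV proteome peptides → incubated with sorted NK subsets → surface marker staining, % positive cells. Increase = activation; decrease = inhibition.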
# [2] = test system: NKG2A−/NKG2C+ NK cells; experiment: NK cell activation markers in NKG2A-/NKG2C+ NK cells incubated with peptide and K562 expressing HLA-E (activation); type: cell-based, human; conditions: for effect on NKG2A−/NKG2C+ NK cell activation (in words): K562 expressing HLA-E, CD107a, IFNG, TNF, CCL3; for percentage of CCL3+ NK cells / percentage of CD107+ NK cells / percentage of IFNG+ NK cells / percentage of TNF+ NK cells: NKG2A-/NKG2C+ NK cells, K562/HLA-E
# In short: as §1
# [3] = test system: NKG2A−/NKG2C− NK cells; experiment: NK cell activation markers in control NKG2A-/NKG2C- NK cells incubated with peptide and K562 expressing HLA-E; type: cell-based, human
# In short: as §1
# [4] = target: T1, HLA-E (Homo sapiens, UniProt P13747); experiment: HLA-E surface stabilization assay with RMA-S/HLA-E cells; type: cell-based; conditions: 30 μM peptide, 16 hours, anti-HLA-E antibody
# T1 construct: expressed in transfected cells; host or cells: RMA-S/HLA-E cells (antigen processing-defective lymphoma cell line)
# T1 sequence (P13747 22-358): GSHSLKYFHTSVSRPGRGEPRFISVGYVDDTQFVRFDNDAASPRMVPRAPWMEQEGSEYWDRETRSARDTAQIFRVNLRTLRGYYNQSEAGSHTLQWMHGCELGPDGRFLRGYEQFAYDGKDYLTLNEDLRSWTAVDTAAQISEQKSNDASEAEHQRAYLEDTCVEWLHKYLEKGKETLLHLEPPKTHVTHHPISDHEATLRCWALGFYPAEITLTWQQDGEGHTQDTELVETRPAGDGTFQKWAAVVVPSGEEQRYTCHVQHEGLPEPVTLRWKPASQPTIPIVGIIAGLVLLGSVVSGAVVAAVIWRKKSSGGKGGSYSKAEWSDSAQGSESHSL
# T1 sequence (P61769 21-119 partner): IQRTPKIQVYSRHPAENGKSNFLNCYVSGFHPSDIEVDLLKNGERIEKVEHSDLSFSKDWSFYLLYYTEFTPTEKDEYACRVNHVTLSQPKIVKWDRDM
# Experimental: HLA-E surface expression was assessed by measuring geometric mean fluorescence intensity (GeoMFI) in RMA-S cells following immunofluorescence staining with an anti-HLA-E antibody (Table 14). Increased GeoMFI was indicative of increased HLA-E surface expression stability following novel peptide exposures (FIG. 3).
sequence,measurement,setting,value
"VMPPRTLLL [human15, peptide HLA-A 3-11 derived from the human proteome]",effect on NKG2A+/NKG2C− NK cell inhibition (in words),"[1]; K562 expressing HLA-E, CD107a, IFNG, TNF, CCL3",strong inhibitory
same,percentage of CCL3+ NK cells,[1]; Trial 1,1.79%
same,percentage of CD107a+ NK cells,[1]; Trial 1,0.49%
same,percentage of IFNG+ NK cells,[1]; Trial 1,0.05%
same,percentage of TNF+ NK cells,[1]; Trial 1,0.01%
same,percentage of CCL3+ NK cells,[1]; Trial 2,1.6%
same,percentage of CD107a+ NK cells,[1]; Trial 2,0.79%
same,percentage of IFNG+ NK cells,[1]; Trial 2,0.3%
same,percentage of TNF+ NK cells,[1]; Trial 2,0.27%
same,percentage of CCL3+ NK cells,[1]; Trial 3,1.12%
same,percentage of CD107a+ NK cells,[1]; Trial 3,0.73%
same,percentage of IFNG+ NK cells,[1]; Trial 3,0.44%
same,percentage of TNF+ NK cells,[1]; Trial 3,0.19%
same,percentage of CCL3+ NK cells,[1]; Trial 4,0.75%
same,percentage of CD107a+ NK cells,[1]; Trial 4,0.75%
same,percentage of IFNG+ NK cells,[1]; Trial 4,0.2%
same,percentage of TNF+ NK cells,[1]; Trial 4,0.18%
same,percentage of CCL3+ NK cells,[1]; Trial 5,3.7%
same,percentage of CD107a+ NK cells,[1]; Trial 5,1.04%
same,percentage of IFNG+ NK cells,[1]; Trial 5,0.19%
same,percentage of TNF+ NK cells,[1]; Trial 5,0.16%
same,percentage of CCL3+ NK cells,[1]; Trial 6,2.09%
same,percentage of CD107a+ NK cells,[1]; Trial 6,0.52%
same,percentage of IFNG+ NK cells,[1]; Trial 6,0.24%
same,percentage of TNF+ NK cells,[1]; Trial 6,0.05%
same,effect on NKG2A−/NKG2C+ NK cell activation (in words),[2]; listed as SEQ ID NO. 14,strong activating effects
same,effect on NKG2A−/NKG2C+ NK cell activation (in words),[2]; listed as h15,strong inhibitory and activating effects
same,percentage of CCL3+ NK cells,[2]; Trial 1,79.5%
same,percentage of CD107+ NK cells,[2]; Trial 1,78.4%
same,percentage of IFNG+ NK cells,[2]; Trial 1,66.7%
same,percentage of TNF+ NK cells,[2]; Trial 1,52.1%
same,percentage of CCL3+ NK cells,[2]; Trial 2,89.7%
same,percentage of CD107+ NK cells,[2]; Trial 2,86%
same,percentage of IFNG+ NK cells,[2]; Trial 2,79.9%
same,percentage of TNF+ NK cells,[2]; Trial 2,71.8%
same,percentage of CCL3+ NK cells,[2]; Trial 3,86.8%
same,percentage of CD107+ NK cells,[2]; Trial 3,88.2%
same,percentage of IFNG+ NK cells,[2]; Trial 3,78.8%
same,percentage of TNF+ NK cells,[2]; Trial 3,68.2%
same,percentage of CCL3+ NK cells,[2]; Trial 4,69%
same,percentage of CD107+ NK cells,[2]; Trial 4,68.9%
same,percentage of IFNG+ NK cells,[2]; Trial 4,60.9%
same,percentage of TNF+ NK cells,[2]; Trial 4,52.6%
same,percentage of CCL3+ NK cells,[2]; Trial 5,78.9%
same,percentage of CD107+ NK cells,[2]; Trial 5,78%
same,percentage of IFNG+ NK cells,[2]; Trial 5,71.9%
same,percentage of TNF+ NK cells,[2]; Trial 5,66.6%
same,percentage of CCL3+ NK cells,[2]; Trial 6,58.4%
same,percentage of CD107+ NK cells,[2]; Trial 6,56.2%
same,percentage of IFNG+ NK cells,[2]; Trial 6,44.1%
same,percentage of TNF+ NK cells,[2]; Trial 6,36.3%
same,percentage CCL3+ NK cells,[3]; Trial 1,34%
same,percentage CD107+ NK cells,[3]; Trial 1,25.7%
same,percentage TNF+ NK cells,[3]; Trial 1,3.42%
same,percentage of IFNG+ NK cells,[3]; Trial 1,15.5%
same,percentage CCL3+ NK cells,[3]; Trial 2,55.5%
same,percentage CD107+ NK cells,[3]; Trial 2,34.1%
same,percentage TNF+ NK cells,[3]; Trial 2,9.68%
same,percentage of IFNG+ NK cells,[3]; Trial 2,25.4%
same,percentage CCL3+ NK cells,[3]; Trial 3,46.7%
same,percentage CD107+ NK cells,[3]; Trial 3,43.7%
same,percentage TNF+ NK cells,[3]; Trial 3,14.8%
same,percentage of IFNG+ NK cells,[3]; Trial 3,34.7%
same,percentage CCL3+ NK cells,[3]; Trial 4,34.3%
same,percentage CD107+ NK cells,[3]; Trial 4,29.6%
same,percentage TNF+ NK cells,[3]; Trial 4,10.3%
same,percentage of IFNG+ NK cells,[3]; Trial 4,20.3%
same,percentage CCL3+ NK cells,[3]; Trial 5,24.7%
same,percentage CD107+ NK cells,[3]; Trial 5,18.9%
same,percentage TNF+ NK cells,[3]; Trial 5,6.97%
same,percentage of IFNG+ NK cells,[3]; Trial 5,14.7%
same,percentage CCL3+ NK cells,[3]; Trial 6,26.4%
same,percentage CD107+ NK cells,[3]; Trial 6,21.1%
same,percentage TNF+ NK cells,[3]; Trial 6,5.43%
same,percentage of IFNG+ NK cells,[3]; Trial 6,11.9%
same,HLA-E surface expression stability (GeoMFI),[4]; Trial 1,3783 GeoMFI
same,HLA-E surface expression stability (GeoMFI),[4]; Trial 2,4068 GeoMFI
same,HLA-E surface expression stability (GeoMFI),[4]; Trial 3,4205 GeoMFI
same,HLA-E surface expression stability (GeoMFI),[4]; Trial 4,4760 GeoMFI
